Data from ChEMBL document CHEMBL1151594, “Aromatic guanyl hydrazones: Synthesis, structural studies and in vitro activity against Trypanosoma cruzi” (1995).
Each block holds one compound with its values, some of them ahead of it.

Legend:
Format in all cases: functional
[1] = species: Mus musculus; assay: Effect on lysis of erythrocytes after 24 hr at 4 degree centigrade; Value given as 150-200
[2] = system: Trypanosoma cruzi; assay: In vitro inhibitory activity against trypomastigote form of Trypanosoma Cruzi.; settings: read-out: ID50 (the source's name)
[3] = species: Mus musculus; assay: Effect on lysis of erythrocytes after 24 hr at 4 degree centigrade; Value given as 500-600
[4] = species: Mus musculus; assay: Effect on lysis of erythrocytes after 24 hr at 4 degree centigrade; Value given as 40-50
[5] = species: Mus musculus; assay: Effect on lysis of erythrocytes after 24 hr at 4 degree centigrade; Value given as 300-400
[6] = species: Mus musculus; assay: Effect on lysis of erythrocytes after 24 hr at 4 degree centigrade; Value given as 100-150
[7] = species: Mus musculus; assay: Effect on lysis of erythrocytes after 24 hr at 4 degree centigrade; Value given as 75-100
[8] = species: Mus musculus; assay: Effect on lysis of erythrocytes after 24 hr at 4 degree centigrade; Value given as 500-700
[9] = species: Mus musculus; assay: Effect on lysis of erythrocytes after 24 hr at 4 degree centigrade; Value given as 400-500
[10] = species: Mus musculus; assay: Effect on lysis of erythrocytes after 24 hr at 4 degree centigrade; Value given as 250-300
[11] = species: Mus musculus; assay: Effect on lysis of erythrocytes after 24 hr at 4 degree Centigrade
[12] = species: Mus musculus; assay: Effect on lysis of erythrocytes after 24 hr at 4 degree centigrade; Value given as 1200-1400
[13] = species: Mus musculus; assay: Effect on lysis of erythrocytes after 24 hr at 4 degree centigrade; Value given as 50-75
[14] = species: Mus musculus; assay: Effect on lysis of erythrocytes after 24 hr at 4 degree centigrade; Value given as 700-1000

Compound: CN(C)c1ccc(/C=N/NC(=N)N)cc1.Cl
IC50 [2]: 202 µM | Total lysis [3]: 500 µM

Compound: Cl.N=C(N)N/N=C/c1ccccc1N
IC50 [2]: 261 µM | Total lysis [3]: 500 µM

Compound: Cl.N=C(N)N/N=C/c1ccccc1
Total lysis [9]: 400 µM

Compound: Cl.N=C(N)N/N=C/c1cccc([N+](=O)[O-])c1O
Total lysis [11]: >1400 µM | IC50 [2]: 876 µM

Compound: Cl.N=C(N)N/N=C/c1cc2c(cc1N)OCO2
IC50 [2]: 221 µM | Total lysis [3]: 500 µM

Compound: Cl.N=C(N)N/N=C/c1ccc(C(=O)O)cc1
Total lysis [12]: 1200 µM | IC50 [2]: 573 µM

Compound: Cl.N=C(N)N/N=C/c1cc2c(cc1Br)OCO2
Total lysis [13]: 50 µM

Compound: Cl.N=C(N)N/N=C/c1ccc2c(c1)OCO2
Total lysis [14]: 700 µM

Compound: COc1cc(/C=N/NC(=N)N)ccc1O
IC50 [2]: > 4800 µM

Compound: COc1cccc(/C=N/NC(=N)N)c1OC.Cl
Total lysis [7]: 75 µM

Compound: Cl.N=C(N)N/N=C/c1ccc(Cl)cc1
Total lysis [6]: 100 µM

Compound: CN(C)c1ccc(C(=C2C=CC(=[N+](C)C)C=C2)c2ccc(N(C)C)cc2)cc1 [GENTIAN VIOLET]
IC50 [2]: 536 µM

The next lines start with results.

IC50 [2]: 55.9 µM
Compound: Cl.N=C(N)N/N=C/c1ccc([N+](=O)[O-])cc1
Total lysis [1]: 150 µM

IC50 [2]: 41.4 µM
Compound: COc1ccc(OC)c(/C=N/NC(=N)N)c1.Cl
Total lysis [1]: 150 µM

IC50 [2]: 86.3 µM
Compound: COc1ccccc1/C=N/NC(=N)N.Cl
Total lysis [1]: 150 µM

IC50 [2]: 17.1 µM
Compound: Cl.N=C(N)N/N=C/c1cc2c(cc1[N+](=O)[O-])OCO2
Total lysis [4]: 40 µM

IC50 [2]: 166 µM
Compound: Cl.N=C(N)N/N=C/c1ccccc1O
Total lysis [5]: 300 µM

IC50 [2]: 33.8 µM
Compound: COc1ccc(/C=N/NC(=N)N)c(OC)c1.Cl
Total lysis [6]: 100 µM

IC50 [2]: 34.7 µM
Compound: CCOc1ccccc1/C=N/NC(=N)N.Cl
Total lysis [7]: 75 µM

IC50 [2]: 87.5 µM
Compound: Cl.N=C(N)N/N=C/c1ccccc1[N+](=O)[O-]
Total lysis [1]: 150 µM

IC50 [2]: 183 µM
Compound: Cl.N=C(N)N/N=C/c1cccc([N+](=O)[O-])c1
Total lysis [8]: 500 µM

IC50 [2]: 97.8 µM
Compound: CCOc1cccc(/C=N/NC(=N)N)c1O.Cl
Total lysis [1]: 150 µM

IC50 [2]: 103 µM
Compound: Cc1ccc(/C=N/NC(=N)N)cc1.Cl
Total lysis [10]: 250 µM
